Data: patent publication US9278091B2, “Compounds for the treatment of Clostridium difficile associated disease” (Summit Therapeutics PLC, priority 2010, dated 2016)

Legend:
Assay type in all cases: cell-based
[1] = system: Clostridium difficile ATCC700057; test: MIC by broth microdilution (CLSI) against Clostridium difficile; conditions: Clostridioides difficile, read-out: minimum inhibitory concentration (MIC) C. difficile
Experimental: (§1) The term “minimum inhibitory concentration” or “MIC” defines the lowest concentration of a test compound that is needed to inhibit growth of a bacterial isolate in vitro. A common method for determining the MIC of an antibiotic is to prepare several tubes containing serial dilutions of the test compound that are then inoculated with the bacterial isolate of interest.
(§2) MIC data were determined by broth microdilution according to CLSI protocols described in Methods for Antimicrobial Susceptibility Testing of Anaerobic Bacteria; Approved Standard-Seventh Edition [M11-A7, Vol. 27, No 2, January 2007] and Methods for Dilution Antimicrobial Susceptibility Tests for Bacteria That Grow Aerobically; Approved Standard—Seventh Edition [M7-A7, Vol. 26, No 2, January 2006].

[2] = system: Bacteroides fragilis ATCC 25285; test: MIC by broth microdilution (CLSI) against B. fragilis; conditions: ATCC25285, read-out: minimum inhibitory concentration (MIC) B. fragilis
Experimental: as §1, §2
(§3) The bacterial strains used were: • Bacteroides fragilis ATCC 25285 • Escherichia coli ATCC25922 • Lactobacillus paracasei Z1 83 • Bifidobacterium dentium NCTC 11816 • B. adolescentis MWR144 • Staphylococcus aureus ATCC29213 • Enterococcus faecalis ATCC29212

[3] = system: Escherichia coli ATCC25922; test: MIC by broth microdilution (CLSI) against E. coli; conditions: read-out: minimum inhibitory concentration (MIC) E. coli
Experimental: as §1, §2, §3

[4] = system: Lactobacillus paracasei Z1 83; test: MIC by broth microdilution (CLSI) against L. paracasei; conditions: Lacticaseibacillus paracasei, Z183, read-out: minimum inhibitory concentration (MIC) L. paracasei
Experimental: as §1, §2, §3

[5] = system: Bifidobacterium dentium NCTC 11816; test: MIC by broth microdilution (CLSI) against B. dentium; conditions: NCTC11816, read-out: minimum inhibitory concentration (MIC) B. dentium
Experimental: as §1, §2, §3

B. adolescentis MWR144 = test: MIC by broth microdilution (CLSI) against B. adolescentis; conditions: Bifidobacterium adolescentis, read-out: minimum inhibitory concentration (MIC) B. adolescentis
Experimental: as §1, §2, §3

[6] = system: Staphylococcus aureus ATCC29213; test: MIC by broth microdilution (CLSI) against S. aureus; conditions: read-out: minimum inhibitory concentration (MIC) S. aureus
Experimental: as §1, §2, §3

[7] = system: Enterococcus faecalis ATCC29212; test: MIC by broth microdilution (CLSI) against E. faecalis; conditions: read-out: minimum inhibitory concentration (MIC) E. faecalis
Experimental: as §1, §2, §3

Row | SMILES | MIC [1] [µg/mL] | MIC [2] [µg/mL] | MIC [3] [µg/mL] | MIC [4] [µg/mL] | MIC [5] [µg/mL] | MIC (B. adolescentis MWR144) [µg/mL] | MIC [6] [µg/mL] | MIC [7] [µg/mL]
1 | c1ccc2oc(-c3nc4cc(-c5ccc6[nH]c(-c7ccncc7)nc6c5)ccc4[nH]3)cc2c1 [Example 10, 2-(benzofuran-2-yl)-2′-(pyridin-4-yl)-1H,1′H-5,5′-bibenzo[d]imidazole] | ≤ 1 | ≥ 64 | ≥ 64 | ≥ 64 | ≥ 64 | ≤ 32 | ≤ 32 | ≥ 64
2 | c1cc(-c2nc3cc(-c4ccc5[nH]c(-c6ccc7occc7c6)nc5c4)ccc3[nH]2)ccn1 [Example 3, 2-(benzofuran-5-yl)-2′-(pyridin-4-yl)-1H,1′H-5,5′-bibenzo[d]imidazole] | ≤ 1 | ≥ 64 | ≥ 64 | ≤ 32 | ≤ 32 | ≤ 4 | ≤ 1 | ≤ 1
3 | c1cc(-c2nc3ccc(-c4ccc5[nH]c(-c6ccc7sccc7c6)nc5c4)cc3[nH]2)ccn1 [Example 5, 2-(benzo[b]thiophen-5-yl)-2′-(pyridin-4-yl)-1H,3′H-5,5′-bibenzo[d]imidazole] | ≤ 1 | ≥ 64 | ≥ 64 | ≥ 64 | ≥ 64 | ≤ 32 | ≥ 64 | ≤ 32
4 | c1cc(-c2nc3cc(-c4ccc5[nH]c(-c6ccc7c(c6)OCO7)nc5c4)ccc3[nH]2)ccn1 [Example 9, 2-(benzo[d][1,3]dioxol-5-yl)-2′-(pyridin-4-yl)-1H,1′H-5,5′-bibenzo[d]imidazole] | ≤ 1 | ≥ 64 | ≥ 64 | ≥ 64 | ≥ 64 | ≥ 64 | ≥ 64 | ≥ 64
5 | c1cnc2sc(-c3nc4cc(-c5ccc6[nH]c(-c7ccncc7)nc6c5)ccc4[nH]3)cc2c1 [Example 1, 2-(2′-(pyridin-4-yl)-1H,1′H-5,5′-bibenzo[d]imidazol-2-yl)thieno[2,3-b]pyridine] | ≤ 1 | ≥ 64 | ≥ 64 | ≥ 64 | ≥ 64 | ≤ 32 | ≥ 64 | ≥ 64
6 | c1cc(-c2nc3ccc(-c4ccc5[nH]c(-c6ccc7c(c6)CCO7)nc5c4)cc3[nH]2)ccn1 [Example 7, 2-(2,3-dihydrobenzofuran-5-yl)-2′-(pyridin-4-yl)-1H,3′H-5,5′-bibenzo[d]imidazole] | ≤ 1 | ≥ 64 | ≥ 64 | ≥ 64 | ≥ 64 | ≤ 4 | ≥ 64 | ≤ 4
7 | c1cc(-c2nc3ccc(-c4ccc5[nH]c(-c6ccc7[nH]ccc7c6)nc5c4)cc3[nH]2)ccn1 [Example 6, 2-(1H-indol-5-yl)-2′-(pyridin-4-yl)-1H,3′H-5,5′-bibenzo[d]imidazole] | ≤ 1 | ≥ 64 | ≥ 64 | ≥ 64 | ≥ 64 | ≤ 32 | ≤ 32 | ≥ 64
8 | c1cc(-c2nc3ccc(-c4ccc5[nH]c(-c6ccc7[nH]cnc7c6)nc5c4)cc3[nH]2)ccn1 [Example 4, 6-(2′-(pyridin-4-yl)-1H,3′H-5,5′-bibenzo[d]imidazol-2-yl)benzo[d]imidazole] | ≤ 1 | ≥ 64 | ≥ 64 | ≥ 64 | ≥ 64 | ≥ 64 | ≥ 64 | ≥ 64
9 | c1cc(-c2nc3cc(-c4ccc5[nH]c(-c6ccc7nccn7c6)nc5c4)ccc3[nH]2)ccn1 [Example 8, 2-(imidazo[1,2-a]pyridin-6-yl)-2′-(pyridin-4-yl)-1H,1′H-5,5′-bibenzo[d]imidazole] | ≤ 1 | ≥ 64 | ≥ 64 | ≥ 64 | ≥ 64 | ≥ 64 | ≥ 64 | ≥ 64
10 | c1cncc(-c2nc3cc(-c4ccc5[nH]c(-c6cc7cccnc7s6)nc5c4)ccc3[nH]2)c1 [Example 13, 2-(2′-(pyridin-3-yl)-1H,1′H-[5,5′-bibenzo[d]imidazol]-2-yl)thieno[2,3-b]pyridine] | ≤ 1 | ≥ 64 | ≥ 64 | ≥ 64 | ≥ 64 | ≥ 64 | ≥ 64 | ≥ 64
11 | c1cncc(-c2nc3cc(-c4ccc5[nH]c(-c6ccc7nccn7c6)nc5c4)ccc3[nH]2)c1 [Example 12, 2-(imidazo[1,2-a]pyridin-6-yl)-2′-(pyridin-3-yl)-1H,1′H-5,5′-bibenzo[d]imidazole] | ≤ 1 | ≥ 64 | ≥ 64 | ≥ 64 | ≥ 64 | ≥ 64 | ≥ 64 | ≥ 64
12 | c1ccc2sc(-c3nc4cc(-c5ccc6[nH]c(-c7ccncc7)nc6c5)ccc4[nH]3)cc2c1 [Example 2, 2-(benzo[b]thiophen-2-yl)-2′-(pyridin-4-yl)-1H,1′H-5,5′-bibenzo[d]imidazole] | ≤ 4 | ≥ 64 | ≥ 64 | ≥ 64 | ≥ 64 | ≥ 64 | ≥ 64 | ≥ 64
13 | c1cc(-c2nc3cc(-c4ccc5[nH]c(-c6cc7ccncc7s6)nc5c4)ccc3[nH]2)ccn1 [Example 11, 2-(2′-(pyridin-4-yl)-1H,1′H-[5,5′-bibenzo[d]imidazol]-2-yl)thieno[2,3-c]pyridine] | ≤ 1 | ≥ 64 | ≥ 64 | ≥ 64 | ≥ 64 | ≥ 64 | ≥ 64 | ≥ 64
